Patent US12421243B2, “Pharmaceutically effective compounds inhibiting selectively the myosin 2 isoforms” (PRINTNET KERESKEDELMI ÉS SZOLGÁLTATÓ KFT., priority 2018, dated 2025)

Assays:
[1] = target: recombinant Dictyostelium miozin (Dictyostelium) (Dictyostelium discoideum, UniProt P08799); experiment: actomyosin steady state ATPase measurement, Dictyostelium myosin; type: biochemical; settings: for IC50: concentration required for semi-maximal inhibition of ATPase, read-out: IC50 (μM) Dicty; for inhibition at 5 µM: read-out: % inhibition at 5 μM (or 10 μM if racemate) Dicty; for inhibition at 50 µM: read-out: % inhibition at 50 μM (or 100 μM if racemate) Dicty; for % inhibition. complete Dicty: maximum value of inhibition of ATPase activity
recombinant Dictyostelium miozin (Dictyostelium), sequence (P08799 whole entry): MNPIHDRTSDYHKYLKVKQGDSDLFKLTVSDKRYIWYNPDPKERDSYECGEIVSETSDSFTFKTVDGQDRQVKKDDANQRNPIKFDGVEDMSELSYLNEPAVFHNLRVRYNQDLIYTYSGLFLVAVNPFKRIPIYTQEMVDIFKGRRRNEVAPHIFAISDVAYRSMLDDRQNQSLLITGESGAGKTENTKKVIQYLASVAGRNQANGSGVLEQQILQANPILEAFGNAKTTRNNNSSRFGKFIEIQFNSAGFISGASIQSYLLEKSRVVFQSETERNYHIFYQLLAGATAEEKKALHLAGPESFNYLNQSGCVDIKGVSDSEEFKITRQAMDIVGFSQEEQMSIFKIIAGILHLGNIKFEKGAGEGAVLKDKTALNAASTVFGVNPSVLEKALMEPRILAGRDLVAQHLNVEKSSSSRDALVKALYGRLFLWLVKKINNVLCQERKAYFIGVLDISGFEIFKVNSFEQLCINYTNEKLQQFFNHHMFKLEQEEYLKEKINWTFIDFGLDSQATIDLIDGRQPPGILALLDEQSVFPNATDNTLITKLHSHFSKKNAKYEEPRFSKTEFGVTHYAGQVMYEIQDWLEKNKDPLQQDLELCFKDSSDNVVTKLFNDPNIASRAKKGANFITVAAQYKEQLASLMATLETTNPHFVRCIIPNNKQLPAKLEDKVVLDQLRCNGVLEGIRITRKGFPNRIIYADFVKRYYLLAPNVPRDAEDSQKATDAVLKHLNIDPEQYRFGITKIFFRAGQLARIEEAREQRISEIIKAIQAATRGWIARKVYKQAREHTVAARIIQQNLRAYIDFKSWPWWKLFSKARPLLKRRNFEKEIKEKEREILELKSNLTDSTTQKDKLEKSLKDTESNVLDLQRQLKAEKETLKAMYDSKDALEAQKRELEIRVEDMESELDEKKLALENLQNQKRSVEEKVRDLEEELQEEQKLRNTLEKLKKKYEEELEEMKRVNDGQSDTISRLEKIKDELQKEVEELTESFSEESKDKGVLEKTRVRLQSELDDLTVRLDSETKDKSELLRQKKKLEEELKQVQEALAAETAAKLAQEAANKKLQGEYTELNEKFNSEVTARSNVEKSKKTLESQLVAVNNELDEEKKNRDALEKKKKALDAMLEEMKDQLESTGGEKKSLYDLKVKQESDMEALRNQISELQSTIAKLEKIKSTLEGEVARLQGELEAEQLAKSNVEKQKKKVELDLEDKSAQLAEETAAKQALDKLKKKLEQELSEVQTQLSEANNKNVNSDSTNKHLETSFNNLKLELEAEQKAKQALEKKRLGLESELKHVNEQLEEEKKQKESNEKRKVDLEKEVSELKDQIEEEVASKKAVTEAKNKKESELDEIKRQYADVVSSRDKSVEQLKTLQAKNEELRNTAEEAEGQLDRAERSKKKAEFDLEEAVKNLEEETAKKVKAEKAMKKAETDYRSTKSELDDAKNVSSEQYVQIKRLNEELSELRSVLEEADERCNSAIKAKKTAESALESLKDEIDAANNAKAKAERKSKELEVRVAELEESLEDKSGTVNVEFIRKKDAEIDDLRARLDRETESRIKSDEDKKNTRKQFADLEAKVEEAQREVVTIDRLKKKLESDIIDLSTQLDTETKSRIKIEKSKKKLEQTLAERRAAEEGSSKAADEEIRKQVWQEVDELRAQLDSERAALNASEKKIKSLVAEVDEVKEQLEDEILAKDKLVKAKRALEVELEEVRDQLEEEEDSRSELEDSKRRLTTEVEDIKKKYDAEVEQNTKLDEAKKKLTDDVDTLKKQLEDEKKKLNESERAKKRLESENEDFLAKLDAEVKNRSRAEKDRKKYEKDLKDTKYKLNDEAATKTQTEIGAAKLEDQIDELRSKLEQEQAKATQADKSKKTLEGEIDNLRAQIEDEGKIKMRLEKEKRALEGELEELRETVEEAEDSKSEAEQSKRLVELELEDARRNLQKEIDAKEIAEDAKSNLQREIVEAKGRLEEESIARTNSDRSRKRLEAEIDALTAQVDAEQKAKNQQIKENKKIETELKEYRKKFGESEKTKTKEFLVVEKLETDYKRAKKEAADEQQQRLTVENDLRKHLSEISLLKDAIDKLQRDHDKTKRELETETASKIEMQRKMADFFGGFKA
Source text: (§1) […]; (ii) the concentration required for semi-maximal inhibition.

[2] = target: T1, isolated porcine cardiac ventricular myocardium (cardiac) (Sus scrofa, UniProt P79293); experiment: actomyosin steady state ATPase measurement, cardiac myosin; type: biochemical; settings: for IC50: concentration required for semi-maximal inhibition of ATPase; for Inhibition (%) cardiac: maximum inhibition, compounds in IC50 range 3-6 μM; for % inhibition. complete cardiac: maximum value of inhibition of ATPase activity; for inhibition at 5 µM: read-out: % inhibition at 5 μM (or 10 μM if racemate) cardiac, 5 μM (10 μM if racemate); for inhibition at 5 µM / inhibition at 50 µM: ATPase activity; for inhibition at 50 µM: read-out: % inhibition at 50 μM (or 100 μM if racemate) cardiac, 50 μM (100 μM if racemate)
T1 construct: isolated porcine cardiac ventricular myocardium (cardiac); from tissue; host or cells: porcine cardiac ventricle
Source text: as §1

[3] = test system: isolated rabbit skeletal muscle myosin (skeletal); experiment: actomyosin steady state ATPase measurement, skeletal muscle myosin; type: biochemical; settings: for % inhibition at 5 μM (or 10 μM if racemate) Skeletal: 5 μM (10 μM if racemate); for % inhibition at 5 μM (or 10 μM if racemate) Skeletal / % inhibition at 50 μM (or 100 μM if racemate) Skeletal: ATPase activity; for % inhibition at 50 μM (or 100 μM if racemate) Skeletal: 50 μM (100 μM if racemate); for IC50: concentration required for semi-maximal inhibition of ATPase; for % inhibition. complete Skeletal: maximum value of inhibition of ATPase activity; for Inhibition (%) skeletal: maximum inhibition, compounds in IC50 range […]-2 μM
Source text: as §1

[4] = target: isolated smooth muscle myosin (UniProt P10587); type: biochemical, chamois; settings: concentration required for semi-maximal inhibition of ATPase
isolated smooth muscle myosin, sequence (P10587 whole entry): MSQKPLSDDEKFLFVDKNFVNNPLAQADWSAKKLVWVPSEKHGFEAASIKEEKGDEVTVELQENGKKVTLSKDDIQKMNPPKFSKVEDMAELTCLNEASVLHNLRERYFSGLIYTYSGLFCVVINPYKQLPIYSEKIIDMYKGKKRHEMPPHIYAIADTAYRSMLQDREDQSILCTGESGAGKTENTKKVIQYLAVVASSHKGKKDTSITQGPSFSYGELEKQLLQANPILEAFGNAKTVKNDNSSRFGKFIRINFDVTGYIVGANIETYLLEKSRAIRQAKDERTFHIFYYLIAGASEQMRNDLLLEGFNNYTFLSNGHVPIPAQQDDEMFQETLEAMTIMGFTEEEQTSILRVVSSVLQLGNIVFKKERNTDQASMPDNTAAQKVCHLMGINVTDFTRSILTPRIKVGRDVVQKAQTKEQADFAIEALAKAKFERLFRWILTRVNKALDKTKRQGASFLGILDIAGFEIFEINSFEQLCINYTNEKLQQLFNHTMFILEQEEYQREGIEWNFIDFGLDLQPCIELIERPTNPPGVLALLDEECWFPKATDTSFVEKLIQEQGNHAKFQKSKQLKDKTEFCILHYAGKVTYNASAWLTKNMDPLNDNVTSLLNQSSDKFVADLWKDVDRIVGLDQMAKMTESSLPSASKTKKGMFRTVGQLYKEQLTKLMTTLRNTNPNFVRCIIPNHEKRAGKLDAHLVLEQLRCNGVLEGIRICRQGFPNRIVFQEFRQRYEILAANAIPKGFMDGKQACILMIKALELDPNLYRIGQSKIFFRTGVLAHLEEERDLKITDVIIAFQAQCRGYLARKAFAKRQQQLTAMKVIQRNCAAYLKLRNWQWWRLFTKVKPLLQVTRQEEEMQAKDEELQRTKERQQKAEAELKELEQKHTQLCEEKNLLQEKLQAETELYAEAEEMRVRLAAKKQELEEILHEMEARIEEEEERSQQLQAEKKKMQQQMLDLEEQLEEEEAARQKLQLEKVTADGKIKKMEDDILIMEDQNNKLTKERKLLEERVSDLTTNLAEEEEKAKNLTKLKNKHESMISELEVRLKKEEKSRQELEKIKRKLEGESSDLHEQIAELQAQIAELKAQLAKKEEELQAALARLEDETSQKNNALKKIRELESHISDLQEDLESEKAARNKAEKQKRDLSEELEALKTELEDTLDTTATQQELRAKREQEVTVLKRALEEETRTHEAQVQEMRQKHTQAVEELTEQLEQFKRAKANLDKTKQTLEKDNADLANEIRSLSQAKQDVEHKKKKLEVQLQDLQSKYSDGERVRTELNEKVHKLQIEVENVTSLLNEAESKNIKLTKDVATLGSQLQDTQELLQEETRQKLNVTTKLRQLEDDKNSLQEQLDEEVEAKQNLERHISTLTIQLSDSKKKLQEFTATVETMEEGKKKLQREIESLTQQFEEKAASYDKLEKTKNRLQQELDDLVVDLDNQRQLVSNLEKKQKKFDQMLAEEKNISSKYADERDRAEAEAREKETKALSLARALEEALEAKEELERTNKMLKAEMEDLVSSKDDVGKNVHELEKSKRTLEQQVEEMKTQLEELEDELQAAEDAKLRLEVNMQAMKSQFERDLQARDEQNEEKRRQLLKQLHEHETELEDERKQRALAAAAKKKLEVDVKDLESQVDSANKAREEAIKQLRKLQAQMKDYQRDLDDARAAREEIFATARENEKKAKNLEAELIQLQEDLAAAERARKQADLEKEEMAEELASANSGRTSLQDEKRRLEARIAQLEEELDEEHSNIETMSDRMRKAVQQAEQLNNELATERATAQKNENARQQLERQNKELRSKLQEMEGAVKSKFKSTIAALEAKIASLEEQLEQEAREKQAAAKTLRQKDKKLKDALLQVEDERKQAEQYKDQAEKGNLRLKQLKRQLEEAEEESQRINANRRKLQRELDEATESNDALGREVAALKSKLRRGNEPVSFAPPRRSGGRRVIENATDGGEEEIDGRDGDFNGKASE
Source text: (ii) the concentration required for semi-maximal inhibition.

[5] = target: isolated smooth muscle myosin (UniProt P10587); type: biochemical, chamois; settings: for % inhibition at 5 μM (or 10 μM if racemate) Smooth: 5 μM (10 μM if racemate); for % inhibition at 5 μM (or 10 μM if racemate) Smooth / % inhibition at 50 μM (or 100 μM if racemate) Smooth: ATPase activity; for % inhibition at 50 μM (or 100 μM if racemate) Smooth: 50 μM (100 μM if racemate); for % inhibition. complete Smooth: maximum value of inhibition of ATPase activity; for Inhibition (%) smooth: maximum inhibition, compounds in IC50 range […]-5 μM
[6] = target: recombinant human non-muscle myosin 2 NM2C (Homo sapiens, UniProt Q7Z406); experiment: actomyosin steady state ATPase measurement, NM2C; type: biochemical
Source text: as §1

Compound | IC50 [1] | inhibition at 5 µM [1] | inhibition at 50 µM [1] | IC50 [2] | % inhibition. complete cardiac [2] | inhibition at 5 µM [2] | inhibition at 50 µM [2] | % inhibition at 5 μM (or 10 μM if racemate) Skeletal [3] | % inhibition at 50 μM (or 100 μM if racemate) Skeletal [3] | IC50 [3] | % inhibition. complete Skeletal [3] | IC50 [4] | % inhibition at 5 μM (or 10 μM if racemate) Smooth [5] | % inhibition at 50 μM (or 100 μM if racemate) Smooth [5] | % inhibition. complete Smooth [5] | % inhibition. complete Dicty [1] | also measured
CN(C)c1ccc(N2CCC3(O)C(=O)c4ccncc4N=C23)cc1 (stereo not shown) [Compound 251, 1-[4-(Dimethylamino)phenyl]-3a-hydroxy-1H,2H,3H,3aH,4H-pyrrolo[2,3-b]1,7-naphthyridin-4-one] | > 100 µM | 1% | 1% | 6 µM | 15% | 6% | 13% | 47% | 85% | 4.8 µM | 93% | > 100 µM | 0% | 25% | 100% |  | Inhibition (%) cardiac [2]: 15%
Cc1cc2c(s1)N=C1N(c3ccc(CO)cc3)CCC1(O)C2=O (stereo not shown) [Compound 227, 9-Hydroxy-12-[4-(hydroxymethyl)phenyl]-5-methyl-4-thia-2,12-diazatricyclo[7.3.0.0^3,7]dodeca-1,3(7),5-trien-8-one] | 5.1 µM | 47% | 96% | 0.76 µM | 90% | 77% | 89% | 82% | 96% | 0.83 µM | 97% | 4 µM | 54% | 92% | 99% | 100% | IC50 ([6]; concentration required for semi-maximal inhibition of ATPase): 2.8 µM; Inhibition (%) NM2C ([6]; maximum inhibition, compounds in IC50 range […]-5 μM): 84%; % inhibition. complete NM2C ([6]; maximum value of inhibition of ATPase activity): 84%; inhibition at 5 µM ([6]; read-out: % inhibition at 5 μM (or 10 μM if racemate) NM2C, 5 μM (10 μM if racemate), ATPase activity): 52%; inhibition at 50 µM ([6]; read-out: % inhibition at 50 μM (or 100 μM if racemate) NM2C, 50 μM (100 μM if racemate), ATPase activity): 80%
O=C1c2ccncc2N=C2N(c3ccc(N4CCOCC4)cc3)CCC12O (stereo not shown) [Compound 248, 3a-Hydroxy-1-[4-(morpholin-4-yl)phenyl]-1H,2H,3H,3aH,4H-pyrrolo[2,3-b]1,7-naphthyridin-4-one] | > 100 µM | 0% | 7% | > 100 µM | 2% | 4% | 1% | 21% | 56% | 12 µM | 70% | > 100 µM | 1% | 0% | 0% | 100% | 
O=C1c2ccncc2N=C2NCCC12O (stereo not shown) [Compound 255, 3a-Hydroxy-1H,2H,3H,3aH,4H-pyrrolo[2,3-b]1,7-naphthyridin-4-one] | 42 µM | 4% | 18% | 1 µM |  | 7% | 7% | 6% | 7% | 1.7 µM | 7% | 1 µM | 3% | 3% | 3% | 33% | Inhibition (%) skeletal [3]: 7%
Cc1cc2c(s1)N=C1NCCC1(O)C2=O (stereo not shown) [Compound 231, 9-Hydroxy-5-methyl-4-thia-2,12-diazatricyclo[7.3.0.0^3,7]dodeca-1,3(7),5-trien-8-one] | > 100 µM | 4% | 0% | 1 µM |  | 6% | 5% | 5% | 7% | 1.4 µM | 7% | 1 µM | 7% | 2% | 5% |  | Inhibition (%) skeletal [3]: 7%; Inhibition (%) smooth [5]: 5%
CC(=O)c1ccc(N2CCC3(O)C(=O)c4ccncc4N=C23)cc1 (stereo not shown) [Compound 240, 1-(4-Acetylphenyl)-3a-hydroxy-1H,2H,3H,3aH,4H-pyrrolo[2,3-b]1,7-naphthyridin-4-one] | 0.39 µM | 24% | 26% | 8.1 µM | 37% | 13% | 31% | 49% | 83% | 4.3 µM | 91% | 1.5 µM | 18% | 23% | 24% |  | Inhibition (%) smooth [5]: 24%
Cc1ccc(N2CCC3(O)C(=O)c4cc(C)sc4N=C23)cc1 (stereo not shown) [Compound 235, 12-[4-(Methyl)phenyl]-9-hydroxy-5-methyl-4-thia-2,12-diazatricyclo[7.3.0.0^3,7]dodeca-1,3(7),5-trien-8-one] | 0.17 µM | 44% | 45% | 0.01 µM | 71% | 72% | 70% | 98% | 100% | 0.08 µM | 100% | 0.01 µM | 82% | 79% | 81% | 46% | 
Cc1ccc(N2CCC3(O)C(=O)c4ccncc4N=C23)cc1 (stereo not shown) [Compound 247, 1-[4-(Methyl)phenyl]-3a-hydroxy-1H,2H,3H,3aH,4H-pyrrolo[2,3-b]1,7-naphthyridin-4-one] | 71 µM | 4% | 22% | 31 µM | 70% | 9% | 43% | 74% | 96% | 1.7 µM | 99% | 44 µM | 3% | 15% | 29% | 54% | 
Cc1cc2c(s1)N=C1N(c3ccc(N(C)C)cc3)CCC1(O)C2=O (stereo not shown) [Compound 250, 12-[4-(Dimethylamino)phenyl]-9-hydroxy-5-methyl-4-thia-2,12-diazatricyclo[7.3.0.0^3,7]dodeca-1,3(7),5-trien-8-one] | 18 µM | 15% | 50% | 9 µM | 76% | 26% | 64% | 93% | 98% | 0.3 µM | 99% |  |  |  |  | 68% | 
O=C1c2ccsc2N=C2NCC[C@@]12O [Compound 207, (9S)-9-Hydroxy-4-thia-2,12-diazatricyclo[7.3.0.0^3,7]dodeca-1,3(7),5-trien-8-one] | > 100 µM | 0% | 5% | 3.7 µM | 8% | 4% | 7% | 7% | 14% | 5.8 µM | 15% | 1 µM | 7% | 6% | 7% |  | Inhibition (%) cardiac [2]: 8%
CN(C)c1ccc(N2CC[C@@]3(O)C(=O)c4ccsc4N=C23)cc1 [Compound 249, (9S)-12-[4-(dimethylamino)phenyl]-9-hydroxy-4-thia-2,12-diazatricyclo[7.3.0.0^3,7]dodeca-1,3(7),5-trien-8-one] | 10 µM | 15% | 39% | 35 µM | 90% | 11% | 52% | 80% | 97% | 1.2 µM | 100% | 13 µM | 19% | 55% | 69% | 47% | Inhibition (%) skeletal [3]: 100%
